Read-outs that look alike come from different tables or passages of the source.
Test system: Piglets
Conditions: for Mortality (%): (number of dead pigs/number of pigs enrolled)x100; for Clinical observations (%): percentage of pigs expressing clinical signs suggestive of product(s) side-effects: po
Method: Safety Study: Studies for safety were conducted. The trials assessed the active ingredients individually and according to various combinations.
Example Safety Study: The following provides the procedure(s) and data collected from the exemplary safety study.
Six different sets of pigs were tested with six different formulations: • 1. […] Statin or Atorvastatin (1.6 mg/dose) • 3. Indomethacin (3.64 mg/dose) • 4. Doxycycline (6 mg/dose) • 5. Cimetidine (18 mg/dose) • 6. Positive control (compounded formulation of Atorvastatin, Indomethacin, […], Doxycycline, and Cimetidine)
Methods: A sow farm negative for Porcine Reproductive and Respiratory Syndrome virus (PRRSv) and Mycoplasma hyopneumoniae and experiencing little to no piglet enteric health challenges was enrolled for the study. Piglets (12-14 days of age) orally received one of the six formulations identified above. When receiving a formulation, 1 mL of assigned treatment was obtained and provided to the Piglets.
At d0 and d1, pen-level fecal consistency was studied. At d1, piglet mortality was recorded.
Fecal scores: Average fecal score (pen-level). Fecal scours 0, 1, 2, and 3 corresponded to normal, pasty, semi-liquid, and liquid feces, respectively, with scores of ≥2 corresponding to diarrhea.
Mortality: %=(number of dead pigs/number of pigs enrolled)×100.

SMILES: CC(C)c1c(C(=O)Nc2ccccc2)c(-c2ccccc2)c(-c2ccc(F)cc2)n1CC[C@@H](O)C[C@@H](O)CC(=O)O [Atorvastatin]
- Mortality (%) (d 0): 0.0%
- Mortality (%) (d 1): 0.0%
- Fecal score of a single litter (pig, in vivo): 1
- Fecal scores: average fecal score (pen-level) (pig, in vivo): 0.5
- Palatability (%): percentage of pigs expressing clinical signs suggestive of poor palatability (pig, in vivo): 0.0%
- Fecal scores: average fecal score (pen-level) (pig, in vivo, 1 day): 0.0
- Clinical observations (%): percentage of pigs expressing clinical signs suggestive of product(s) side-effects (pig, in vivo, 0 day): 0.0%
- Clinical observations (%): percentage of pigs expressing clinical signs suggestive of product(s) side-effects (pig, in vivo, 24 h): 0.0%

SMILES: CN/C(=N/CCSCc1nc[nH]c1C)NC#N [Cimetidine]
- Mortality (%) (d 0): 0.0%
- Mortality (%) (d 1): 0.0%
- Fecal scores: average fecal score (pen-level) (pig, in vivo): 0.0
- Palatability (%): percentage of pigs expressing clinical signs suggestive of poor palatability (pig, in vivo): 0.0%
- Fecal scores: average fecal score (pen-level) (pig, in vivo, 1 day): 0.0
- Clinical observations (%): percentage of pigs expressing clinical signs suggestive of product(s) side-effects (pig, in vivo, 0 day): 0.0%
- Clinical observations (%): percentage of pigs expressing clinical signs suggestive of product(s) side-effects (pig, in vivo, 24 h): 0.0%

SMILES: C[C@H]1c2cccc(O)c2C(=O)C2=C(O)[C@]3(O)C(=O)C(C(N)=O)=C(O)[C@@H](N(C)C)[C@@H]3[C@@H](O)[C@@H]21 [Doxycycline]
- Mortality (%) (d 0): 0.0%
- Mortality (%) (d 1): 0.0%
- Fecal scores: average fecal score (pen-level) (pig, in vivo): 0.0
- Palatability (%): percentage of pigs expressing clinical signs suggestive of poor palatability (pig, in vivo): 0.0%
- Fecal scores: average fecal score (pen-level) (pig, in vivo, 1 day): 0.0
- Clinical observations (%): percentage of pigs expressing clinical signs suggestive of product(s) side-effects (pig, in vivo, 0 day): 0.0%
- Clinical observations (%): percentage of pigs expressing clinical signs suggestive of product(s) side-effects (pig, in vivo, 24 h): 0.0%

SMILES: COc1ccc2c(c1)c(CC(=O)O)c(C)n2C(=O)c1ccc(Cl)cc1 [Indomethacin]
- Mortality (%) (d 0): 0.0%
- Mortality (%) (d 1): 0.0%
- Fecal scores: average fecal score (pen-level) (pig, in vivo): 0.0
- Palatability (%): percentage of pigs expressing clinical signs suggestive of poor palatability (pig, in vivo): 0.0%
- Fecal scores: average fecal score (pen-level) (pig, in vivo, 1 day): 0.0
- Clinical observations (%): percentage of pigs expressing clinical signs suggestive of product(s) side-effects (pig, in vivo, 0 day): 0.0%
- Clinical observations (%): percentage of pigs expressing clinical signs suggestive of product(s) side-effects (pig, in vivo, 24 h): 0.0%

Reference: patent publication US20250288557A1, “FORMULATION AND METHOD FOR TREATMENT OF INFECTIONS” (priority 2022, published 2025)
